{"source": "patent US20210023089A1", "about": "“Compositions Useful for Treating Herpes Simplex Keratitis, and Methods Using Same” (priority 2013, published 2021)", "key": {"[1]": {"tested_on": "McKrae strain HSV-1", "test": "Mouse model of ocular HSV-1 keratitis, disease scoring", "format": "in vivo, C57BL/6J mice", "details": "200 μM topical", "procedure": "Four-week-old female C57BL/6J mice were anesthetized with isoflurane, and their left eyes were scarified in a 4×4 crosshatch pattern with a 28-gauge needle. […] strain HSV-1 was applied in 1 μL inoculum volume at 8×10^5 PFU/eye and the eyelid gently massaged. The infection was allowed to develop for 24 hours, at which point treatments were initiated. KU-55933 was delivered to the corneas dissolved in PBS to a concentration of 200 μM. Control treatments constituted an equivalent amount of DMSO (0.2% vol/vol) in PBS drops. Treatments were administered every 4 hours for 1 full day and then every 8 hours for the remainder of the experiment. Ocular disease severity was assessed at every 24-hour period postinfection. Two disease parameters were scored based on a number scale (Jose et al., 2013, Invest Ophthalmol Vis Sci 54:1070-1079). Briefly, stromal keratitis was scored as 1+, cloudiness, some iris detail visible; 2+, iris detail obscured; 3+, cornea totally opaque; and 4+, corneal perforation. Blepharitis was scored as 1+, puffy eyelids; 2+, puffy eyelids with some crusting; 3+, eye swollen shut with severe crusting; and 4+, eye completely swollen shut and crusted over."}, "[2]": {"tested_on": "human corneas", "format": "cell-based", "procedure": "Human corneas were obtained from the Lions Eye Bank of Delaware Valley. Rabbit corneas were excised from intact fresh eyeballs of young (8-12 weeks) albino rabbits (Pel-Freez Biologicals, Rogers, Ark.). Protocol (Alekseev et al., 2012, J Vis Exp 69:e3631) for ex vivo corneal culture, infection, and treatment was followed closely. Briefly, corneoscleral buttons were excised and rinsed in PBS containing 200 U/mL penicillin and 200 μg/mL streptomycin. The endothelial concavity was filled with culture medium containing 1% low melting temperature agarose. The corneas were cultured epithelial side up in MEM medium supplemented with nonessential amino acids (1×), 2 mM […], 200 U/mL penicillin, and 200 μg/mL streptomycin. The next day, they were infected with 1×10^4 plaque forming units (PFU)/cornea of strain KOS HSV-1 for 1 hour, rinsed, and overlaid with fresh medium. Drug treatments were administered at the same concentrations as for cultured cells. For KU-55933 bioavailability assessment, corneas were treated with bleomycin (200 μg/mL) for 1 hour. The epithelial cell layer was collected by scraping to isolate DNA or protein. […] Treatment toxicity was assessed by briefly staining the cornea with fluorescein (1% wt/vol in PBS) and imaging the epithelial defects with 464-nm wavelength blue light (LDP LLC, Carlstadt, N.J.)."}, "[3]": {"tested_on": "dlsptk strain of HSV-1 (TK mutant)", "test": "qPCR of genome replication of drug-resistant HSV-1 in hTCEpi cells", "format": "cell-based", "procedure": "All cells were cultured at 37° C. and 5% CO2 and supplemented with 100 U/mL penicillin and […]. Human corneal epithelial cells immortalized with hTERT (hTCEpi; Robertson, et al., 2005, Invest Ophthalmol Vis Sci. 46:470-478) were grown in complete keratinocyte growth medium 2 (KGM-2; Lonza, Basel, Switzerland). African green monkey kidney fibroblasts (CV-1; American Type Culture Collection, Manassas, Va.) were grown in Dulbecco's modified Eagle's medium (DMEM; Cellgro, Manassas, Va.) supplemented with 10% FBS. The KOS strain of HSV-1 was used in the in vitro and ex vivo infections, whereas McKrae strain was used for in vivo mouse experiments, and TK mutant dlsptk strain (Coen et al., 1989, Proc Natl Acad Sci USA 86:4736-4740) was used in the drug resistance experiments. All viral stocks were titered on CV-1 monolayers.\nThe following strains of HSV-1 were used: KOS, ICPO-null, HFEM, and tsB7. Subconfluent monolayers of cells were grown in six-well plates. Drug treatments were administered 45 minutes prior to infection and continued for the entire duration of each experiment. Unless indicated otherwise, KU-55933 (Batch No. 5, 99.7% purity; Tocris Bioscience, Bristol, UK) was used at 10 μM final concentration, phosphonoacetic acid (PAA) at 400 μg/mL (Sigma-Aldrich, St. Louis, Mo.), and acyclovir at 50 μg/mL (Sigma-Aldrich). KU-55933 was dissolved in dimethyl sulfoxide (DMSO), and the final concentration of DMSO in both KU-55933 and mock treatment in the in vitro and the ex vivo experiments was 0.1%.\nViral genome replication and transcription were measured by quantitative PCR (qPCR). Total DNA and RNA from infected cells were isolated using the DNeasy Blood & Tissue Kit and the RNeasy Mini Kit, respectively (QIAGEN, Hilden, Germany). RNA was converted to cDNA using qScript (Quanta BioSciences, Gaithersburg, Md.). […] Transcription of the three gene families was measured with primers for RL2 (ICPO), UL30 (DNA polymerase catalytic subunit), and UL44 (gC), with reference primers for the 18S ribosomal RNA (rRNA)."}}}
{"molecule": "O=c1cc(-c2cccc3c2Sc2ccccc2S3)oc(N2CCOCC2)c1", "note": "[KU-55933, 2-(morpholin-4-yl)-6-(thianthren-1-yl)-pyran-4-one]", "values": [{"measurement": "difference in blepharitis score versus control group", "setting": "[1]", "result": "not statistically significant"}, {"measurement": "stromal disease severity (stromal keratitis score)", "setting": "[1]; started 24 hpi, every 4 hours for 1 day then every 8 hours", "result": "notable and statistically significant reduction"}, {"measurement": "stromal keratitis state by day 5 postinfection, on average", "setting": "[1]; all control mice developed corneal perforation", "result": "only corneal opacity"}, {"measurement": "surface defects of explanted human corneas", "setting": "[2]", "result": "did not develop any surface defects"}, {"measurement": "genome replication of dlsptk strain (qPCR)", "setting": "[3]; MOI 0.1, 16 hpi, KU-55933 10 μM, acyclovir 50 μg/mL", "result": "markedly suppress"}, {"measurement": "inhibitory effect on dlsptk infection compared with KOS infection", "setting": "[3]; MOI 0.1, KU-55933 10 μM, 16 hpi", "result": "as potent as its effect on KOS infection"}]}
